Test results reported in the kinase profiling compilation of Christmann-Franck et al. (2016).

How the values were obtained:
Experiment in all cases: KINOMEscan competition binding
Settings in all cases: compound 0.1 µM
FYN (human) = FYN (human) (UniProt P06241)
WEE1 (human) = WEE1 (human) (UniProt P30291)
RPS6KB1 (human) = RPS6KB1 (human) (UniProt P23443)
MINK1 (human) = MINK1 (human) (UniProt Q8N4C8)
ULK3 (human) = ULK3 (human) (UniProt Q6PHR2)
CDK19 (human) = CDK19 (human) (UniProt Q9BWU1)
MAP3K3 (human) = MAP3K3 (human) (UniProt Q99759)
MAP2K2 (human) = MAP2K2 (human) (UniProt P36507)
[1] = tested on: FGFR3 (human), P22607 [G697C]
CDK4 CCND3 (human) = CDK4 CCND3 (human) (UniProt P11802+P30281)
CDK4 CCND3 (human), sequence (P11802 whole entry, looked up): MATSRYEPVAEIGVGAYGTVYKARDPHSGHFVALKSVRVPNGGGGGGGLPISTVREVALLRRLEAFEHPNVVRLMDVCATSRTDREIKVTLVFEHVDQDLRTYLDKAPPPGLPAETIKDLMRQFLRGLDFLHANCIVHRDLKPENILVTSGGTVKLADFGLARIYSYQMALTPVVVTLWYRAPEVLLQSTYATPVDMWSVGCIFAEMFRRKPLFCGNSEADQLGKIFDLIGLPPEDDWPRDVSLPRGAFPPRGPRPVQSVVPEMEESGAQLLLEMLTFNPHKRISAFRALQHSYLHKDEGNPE
CDK4 CCND3 (human), sequence (P30281 whole entry, looked up): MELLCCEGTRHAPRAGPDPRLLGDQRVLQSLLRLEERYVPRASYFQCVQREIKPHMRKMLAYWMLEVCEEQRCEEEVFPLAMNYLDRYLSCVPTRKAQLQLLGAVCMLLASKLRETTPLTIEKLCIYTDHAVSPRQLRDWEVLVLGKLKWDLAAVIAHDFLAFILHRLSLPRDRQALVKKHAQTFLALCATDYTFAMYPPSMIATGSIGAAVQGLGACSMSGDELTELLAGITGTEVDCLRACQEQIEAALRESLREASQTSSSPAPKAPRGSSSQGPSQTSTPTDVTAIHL

RPS6KA4 KD1 (human) = RPS6KA4 KD1 (human) (UniProt O75676)
ROCK2 (human) = ROCK2 (human) (UniProt O75116)
PLK4 (human) = PLK4 (human) (UniProt O00444)
SIK3 (human) = SIK3 (human) (UniProt Q9Y2K2)
MAP3K11 (human) = MAP3K11 (human) (UniProt Q16584)
MAP3K11 (human), sequence (Q16584 whole entry, looked up): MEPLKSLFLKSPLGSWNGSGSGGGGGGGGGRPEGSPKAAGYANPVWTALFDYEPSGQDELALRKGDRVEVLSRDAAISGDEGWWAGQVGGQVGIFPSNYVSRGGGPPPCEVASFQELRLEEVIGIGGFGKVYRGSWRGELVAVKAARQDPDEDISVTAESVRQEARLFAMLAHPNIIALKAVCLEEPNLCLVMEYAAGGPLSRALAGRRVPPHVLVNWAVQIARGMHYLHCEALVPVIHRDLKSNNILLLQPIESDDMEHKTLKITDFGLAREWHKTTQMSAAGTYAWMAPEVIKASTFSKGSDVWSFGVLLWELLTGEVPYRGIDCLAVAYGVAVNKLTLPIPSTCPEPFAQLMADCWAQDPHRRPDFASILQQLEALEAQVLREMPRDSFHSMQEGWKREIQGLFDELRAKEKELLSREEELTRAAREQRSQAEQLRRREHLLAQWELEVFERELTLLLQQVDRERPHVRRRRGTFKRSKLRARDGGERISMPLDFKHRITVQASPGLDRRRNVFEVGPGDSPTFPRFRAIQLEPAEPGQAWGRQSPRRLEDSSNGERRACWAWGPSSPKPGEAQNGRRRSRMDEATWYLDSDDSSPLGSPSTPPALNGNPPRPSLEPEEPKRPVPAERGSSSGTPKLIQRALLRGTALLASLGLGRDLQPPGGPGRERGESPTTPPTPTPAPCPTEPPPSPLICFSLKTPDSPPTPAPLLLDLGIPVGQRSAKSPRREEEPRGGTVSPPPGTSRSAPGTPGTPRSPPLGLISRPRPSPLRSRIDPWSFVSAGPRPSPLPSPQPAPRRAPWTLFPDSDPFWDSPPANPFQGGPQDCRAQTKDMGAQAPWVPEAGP

NEK5 (human) = NEK5 (human) (UniProt Q6P3R8)
NEK5 (human), sequence (Q6P3R8 whole entry, looked up): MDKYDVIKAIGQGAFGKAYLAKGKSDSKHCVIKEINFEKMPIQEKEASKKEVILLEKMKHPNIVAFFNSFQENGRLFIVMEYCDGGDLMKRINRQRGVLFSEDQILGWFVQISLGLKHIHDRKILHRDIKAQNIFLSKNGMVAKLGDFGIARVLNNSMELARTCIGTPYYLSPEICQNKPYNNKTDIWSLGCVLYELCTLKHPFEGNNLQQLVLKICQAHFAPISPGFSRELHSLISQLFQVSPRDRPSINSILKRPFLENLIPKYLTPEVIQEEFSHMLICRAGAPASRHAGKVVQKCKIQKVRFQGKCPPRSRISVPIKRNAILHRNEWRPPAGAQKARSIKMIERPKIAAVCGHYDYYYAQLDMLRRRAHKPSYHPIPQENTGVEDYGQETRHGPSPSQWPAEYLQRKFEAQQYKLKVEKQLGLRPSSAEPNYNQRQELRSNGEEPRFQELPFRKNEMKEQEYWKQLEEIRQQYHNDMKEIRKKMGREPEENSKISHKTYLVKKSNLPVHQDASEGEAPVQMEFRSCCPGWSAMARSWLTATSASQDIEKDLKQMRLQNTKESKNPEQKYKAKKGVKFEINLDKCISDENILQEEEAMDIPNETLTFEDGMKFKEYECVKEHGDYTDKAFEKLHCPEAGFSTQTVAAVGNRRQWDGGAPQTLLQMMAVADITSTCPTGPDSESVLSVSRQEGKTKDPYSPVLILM

MYLK4 (human) = MYLK4 (human) (UniProt Q86YV6)
IRAK1 (human) = IRAK1 (human) (UniProt P51617)
[2] = tested on: KIT (human), P10721 [V559D]
MAST1 (human) = MAST1 (human) (UniProt Q9Y2H9)
STK38 (human) = STK38 (human) (UniProt Q15208)
[3] = tested on: FLT3 (human), P36888 [K663Q]
SNRK (human) = SNRK (human) (UniProt Q9NRH2)
SGK1 (human) = SGK1 (human) (UniProt O00141)
NEK6 (human) = NEK6 (human) (UniProt Q9HC98)
NEK6 (human), sequence (Q9HC98 whole entry, looked up): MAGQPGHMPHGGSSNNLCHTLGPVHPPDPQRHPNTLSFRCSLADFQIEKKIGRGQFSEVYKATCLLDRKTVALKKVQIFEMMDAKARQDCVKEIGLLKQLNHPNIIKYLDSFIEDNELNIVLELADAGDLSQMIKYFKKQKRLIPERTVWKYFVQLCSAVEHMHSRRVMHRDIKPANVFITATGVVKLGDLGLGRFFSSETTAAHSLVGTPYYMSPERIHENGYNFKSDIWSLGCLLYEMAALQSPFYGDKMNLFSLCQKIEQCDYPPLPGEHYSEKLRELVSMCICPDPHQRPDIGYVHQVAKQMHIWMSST

STK17A (human) = STK17A (human) (UniProt Q9UEE5)
STK17A (human), sequence (Q9UEE5 whole entry, looked up): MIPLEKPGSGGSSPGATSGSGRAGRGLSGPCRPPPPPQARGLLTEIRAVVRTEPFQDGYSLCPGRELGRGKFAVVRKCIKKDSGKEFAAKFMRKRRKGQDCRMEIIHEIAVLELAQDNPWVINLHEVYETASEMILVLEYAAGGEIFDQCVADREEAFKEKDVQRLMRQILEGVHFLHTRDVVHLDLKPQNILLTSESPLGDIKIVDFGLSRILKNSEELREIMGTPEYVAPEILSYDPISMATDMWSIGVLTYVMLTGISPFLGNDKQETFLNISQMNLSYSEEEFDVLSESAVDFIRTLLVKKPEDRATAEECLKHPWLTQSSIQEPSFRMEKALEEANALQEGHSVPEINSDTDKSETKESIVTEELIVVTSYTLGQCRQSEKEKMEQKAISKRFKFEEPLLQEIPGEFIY

CDC2L2 (human) = CDC2L2 (human) (UniProt Q9UQ88)
WEE2 (human) = WEE2 (human) (UniProt P0C1S8)
NEK11 (human) = NEK11 (human) (UniProt Q8NG66)
BUB1 (human) = BUB1 (human) (UniProt O43683)
PRKD3 (human) = PRKD3 (human) (UniProt O94806)
HIPK2 (human) = HIPK2 (human) (UniProt Q9H2X6)
TNK2 (human) = TNK2 (human) (UniProt Q07912)
EPHA5 (human) = EPHA5 (human) (UniProt P54756)
CAMK2A (human) = CAMK2A (human) (UniProt Q9UQM7)
CAMK2A (human), sequence (Q9UQM7 whole entry, looked up): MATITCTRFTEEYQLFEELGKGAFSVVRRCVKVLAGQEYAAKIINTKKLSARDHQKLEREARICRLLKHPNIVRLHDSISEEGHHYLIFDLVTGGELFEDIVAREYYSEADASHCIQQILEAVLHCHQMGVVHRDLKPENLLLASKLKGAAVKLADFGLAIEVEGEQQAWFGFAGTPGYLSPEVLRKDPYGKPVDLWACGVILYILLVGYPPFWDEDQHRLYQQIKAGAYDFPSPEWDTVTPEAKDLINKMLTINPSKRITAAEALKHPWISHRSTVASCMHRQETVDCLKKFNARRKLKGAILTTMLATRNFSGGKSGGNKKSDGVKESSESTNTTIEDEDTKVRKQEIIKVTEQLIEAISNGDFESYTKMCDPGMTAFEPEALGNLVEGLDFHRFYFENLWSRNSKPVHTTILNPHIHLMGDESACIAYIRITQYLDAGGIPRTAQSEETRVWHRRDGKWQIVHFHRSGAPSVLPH

MAPK12 (human) = MAPK12 (human) (UniProt P53778)
EPHB1 (human) = EPHB1 (human) (UniProt P54762)
EPHB1 (human), sequence (P54762 whole entry, looked up): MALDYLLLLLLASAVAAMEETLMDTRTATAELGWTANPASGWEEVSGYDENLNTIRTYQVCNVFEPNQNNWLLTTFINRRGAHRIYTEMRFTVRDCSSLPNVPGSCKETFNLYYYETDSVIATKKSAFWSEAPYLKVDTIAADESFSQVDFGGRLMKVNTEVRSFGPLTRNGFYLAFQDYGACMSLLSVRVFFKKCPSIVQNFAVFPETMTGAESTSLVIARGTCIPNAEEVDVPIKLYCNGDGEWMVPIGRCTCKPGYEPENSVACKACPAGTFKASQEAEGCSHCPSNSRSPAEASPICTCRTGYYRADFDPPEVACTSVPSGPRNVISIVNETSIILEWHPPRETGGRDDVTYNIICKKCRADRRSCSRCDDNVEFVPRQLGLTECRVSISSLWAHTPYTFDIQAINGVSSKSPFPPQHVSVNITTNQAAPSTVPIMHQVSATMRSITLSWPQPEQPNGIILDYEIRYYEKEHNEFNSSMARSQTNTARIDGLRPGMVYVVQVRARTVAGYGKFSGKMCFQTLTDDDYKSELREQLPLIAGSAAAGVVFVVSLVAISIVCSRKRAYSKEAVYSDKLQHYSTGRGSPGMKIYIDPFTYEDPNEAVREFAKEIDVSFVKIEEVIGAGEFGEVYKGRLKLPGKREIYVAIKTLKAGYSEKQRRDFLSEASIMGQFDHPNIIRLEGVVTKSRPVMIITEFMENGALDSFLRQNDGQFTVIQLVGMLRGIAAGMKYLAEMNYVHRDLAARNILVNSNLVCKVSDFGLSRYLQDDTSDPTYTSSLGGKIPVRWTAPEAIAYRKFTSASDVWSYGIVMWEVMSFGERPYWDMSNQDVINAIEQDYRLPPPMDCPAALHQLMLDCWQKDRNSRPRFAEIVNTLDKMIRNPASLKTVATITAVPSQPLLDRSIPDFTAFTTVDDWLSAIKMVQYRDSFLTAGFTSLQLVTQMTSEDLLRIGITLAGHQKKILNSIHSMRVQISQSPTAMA

[4] = tested on: LRRK2 (human), Q5S007 [G2019S]
MAPK15 (human) = MAPK15 (human) (UniProt Q8TD08)
TNIK (human) = TNIK (human) (UniProt Q9UKE5)

FYN (human), sequence (P06241 whole entry, looked up): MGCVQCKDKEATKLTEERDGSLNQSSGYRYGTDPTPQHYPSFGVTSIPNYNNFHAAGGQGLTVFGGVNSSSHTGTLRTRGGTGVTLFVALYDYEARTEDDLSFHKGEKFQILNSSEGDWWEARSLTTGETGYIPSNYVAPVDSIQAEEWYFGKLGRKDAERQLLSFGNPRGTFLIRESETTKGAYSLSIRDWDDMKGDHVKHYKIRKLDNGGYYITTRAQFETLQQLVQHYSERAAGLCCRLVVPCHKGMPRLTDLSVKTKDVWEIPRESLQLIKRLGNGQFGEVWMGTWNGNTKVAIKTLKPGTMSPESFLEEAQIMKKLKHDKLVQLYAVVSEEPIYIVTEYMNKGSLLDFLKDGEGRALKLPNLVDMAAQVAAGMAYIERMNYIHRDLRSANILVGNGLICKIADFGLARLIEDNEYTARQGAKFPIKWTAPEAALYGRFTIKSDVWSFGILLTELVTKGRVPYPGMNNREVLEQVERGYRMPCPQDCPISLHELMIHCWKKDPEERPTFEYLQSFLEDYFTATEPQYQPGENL

CCc1ccc(C(=O)Nc2cc(CN3CCN(C)CC3)cc(C(F)(F)F)c2)cc1C#Cc1cnc2ccnn2c1 showed a kinase still bound, per cent of control (FYN (human)) of 72%, a kinase still bound, per cent of control (WEE1 (human)) of 100% and a kinase still bound, per cent of control (RPS6KB1 (human)) of 100%. It also gave a kinase still bound, per cent of control (MINK1 (human)) of 100%, a kinase still bound, per cent of control (ULK3 (human)) of 100% and a kinase still bound, per cent of control (CDK19 (human)) of 90%. It also gave a kinase still bound, per cent of control (MAP3K3 (human)) of 100%, a kinase still bound, per cent of control (MAP2K2 (human)) of 100% and a kinase still bound, per cent of control [1] of 90%. For the same compound, the kinase still bound, per cent of control (CDK4 CCND3 (human)) was 100%, the kinase still bound, per cent of control (RPS6KA4 KD1 (human)) was 93% and the kinase still bound, per cent of control (ROCK2 (human)) was 100%. It also gave a kinase still bound, per cent of control (PLK4 (human)) of 100%, a kinase still bound, per cent of control (SIK3 (human)) of 100% and a kinase still bound, per cent of control (MAP3K11 (human)) of 83%. The kinase still bound, per cent of control (NEK5 (human)) was 100%, the kinase still bound, per cent of control (MYLK4 (human)) was 93% and the kinase still bound, per cent of control (IRAK1 (human)) was 100%. It also gave a kinase still bound, per cent of control [2] of 24%, a kinase still bound, per cent of control (MAST1 (human)) of 100% and a kinase still bound, per cent of control (STK38 (human)) of 93%. The kinase still bound, per cent of control [3] was 70%, the kinase still bound, per cent of control (SNRK (human)) was 75% and the kinase still bound, per cent of control (SGK1 (human)) was 93%. For the same compound, the kinase still bound, per cent of control (NEK6 (human)) was 100%, the kinase still bound, per cent of control (STK17A (human)) was 100% and the kinase still bound, per cent of control (CDC2L2 (human)) was 100%. For the same compound, the kinase still bound, per cent of control (WEE2 (human)) was 84%, the kinase still bound, per cent of control (NEK11 (human)) was 91% and the kinase still bound, per cent of control (BUB1 (human)) was 100%. For the same compound, the kinase still bound, per cent of control (PRKD3 (human)) was 97%, the kinase still bound, per cent of control (HIPK2 (human)) was 100% and the kinase still bound, per cent of control (TNK2 (human)) was 96%. It also gave a kinase still bound, per cent of control (EPHA5 (human)) of 100%, a kinase still bound, per cent of control (CAMK2A (human)) of 92% and a kinase still bound, per cent of control (MAPK12 (human)) of 72%. The kinase still bound, per cent of control (EPHB1 (human)) was 96%, the kinase still bound, per cent of control [4] was 94% and the kinase still bound, per cent of control (MAPK15 (human)) was 100%. It also gave a kinase still bound, per cent of control (TNIK (human)) of 84%.
